Source: patent publication US20100222365A1, “SUBSTITUTED TRIAZOLE DERIVIATIVES AS OXYTOCIN ANTAGONISTS” (Pfizer Inc, priority 2005, published 2010)

Biological target: T1, Oxytocin receptor (CHO-OTR/NFAT-β-Lactamase cells) (Homo sapiens, UniProt P30559)
T1 construct: expressed in transfected cells; host or cells: CHO-OTR cell line, further transfected with the NFAT-β-lactamase reporter construct
T1 sequence (P30559 1-389): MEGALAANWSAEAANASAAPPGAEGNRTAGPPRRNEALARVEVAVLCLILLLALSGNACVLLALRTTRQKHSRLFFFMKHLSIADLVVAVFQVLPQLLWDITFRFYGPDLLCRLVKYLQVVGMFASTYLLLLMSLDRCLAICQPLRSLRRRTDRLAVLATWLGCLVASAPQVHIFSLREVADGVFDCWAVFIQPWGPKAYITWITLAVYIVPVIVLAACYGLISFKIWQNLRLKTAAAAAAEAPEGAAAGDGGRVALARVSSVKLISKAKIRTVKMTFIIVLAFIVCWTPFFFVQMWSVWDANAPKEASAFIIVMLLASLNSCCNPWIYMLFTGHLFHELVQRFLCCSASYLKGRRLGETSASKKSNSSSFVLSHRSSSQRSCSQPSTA
Test: Oxytocin Receptor Beta-lactamase Assay
Assay type: cell-based
Conditions: oxytocin stimulation 4 hours, read-out: Oxytocin antagonist activity, expressed as a Ki value
Protocol: A suitable assay for determining the Oxytocin antagonist activity of a compound is detailed herein below.
Oxytocin Receptor Beta-lactamase Assay:
Cell Culture: Cells used are CHO-OTR/NFAT-β-Lactamase. The NFAT-β-lactamase expression construct was transfected into the CHO-OTR cell line and clonal populations were isolated via fluorescence activated cell sorting (FAGS). An appropriate clone was selected to develop the assay.
Culturing cells—CHO-OTR-NFAT-βLactamase cells were grown in growth medium. Cells were harvested when they reached 80-90% confluence removing the medium and washing with pre-warmed PBS. […]
Cells grown at 80-90% confluence were harvested and counted. […]
Preparation of 1 ml of 6× Loading Buffer with Enhanced Loading Protocol (this requires scale-up according to number of plates to be screened) • 12 μl of solution A (1 mM CCF4-AM in Dry DMSO) was added to […] of solution B (100 mg/ml Pluronic-F127 in DMSO+0.1% Acetic Acid) and vortexed. • The resulting solution was added to 925 μl of solution C (24% w/w PEG400, 18% TR40 v/v in water). • 75 μl of solution D was added (200 mM probenecid in 200 mM NaOH). • 10 μl of 6× Loading Buffer was added to all wells and incubated for 1.5 hrs-2 hrs at room temperature in the dark. • The plates were read using an UL Analyst, Excitation 405 nm, Emission 450 nm and 530 nm, gain optimal, lagtime 0.40 μs integration, 4 flashes, bottom reading.

**Q.** COc1ccc(-n2c(C)nnc2-c2cnc(Oc3cccc(C)c3C)cn2)cn1 [Example 6] was tested. Which Ki did it give?
**A.** 5.5 nM
